Experimental data published in the supplement of paper PMC10307832.

Tests used:
Experiment in all cases: relative viability (nuclei count vs DMSO), 5 days (fraction); higher = more cells survive
Vorinostat + Alpelisib = compound: O=C(CCCCCCC(=O)Nc1ccccc1)NO [Vorinostat] + Cc1nc(NC(=O)N2CCC[C@H]2C(N)=O)sc1-c1ccnc(C(C)(C)C(F)(F)F)c1 [Alpelisib] (partner 2 µM)
In short: (§1)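 Medians of duplicate plates are given as relative viability. That measure is the nuclei count in treated wells divided by the count in vehicle wells. Counts were taken on 4× images of lung cancer cell lines in 1536-well plates, 5 days after pin-tool dosing the day after seeding with one drug alone or a fixed anchor-drug dose plus five library-drug doses (not always all listed) in √10 steps.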

Vorinostat + OSI-027 = compound: O=C(CCCCCCC(=O)Nc1ccccc1)NO [Vorinostat] + COc1cccc2cc(-c3nc([C@H]4CC[C@H](C(=O)O)CC4)n4ncnc(N)c34)[nH]c12 [OSI-027] (partner 0.5 µM)
In short: as §1

Vorinostat + Foretinib = compound: O=C(CCCCCCC(=O)Nc1ccccc1)NO [Vorinostat] + COc1cc2c(Oc3ccc(NC(=O)C4(C(=O)Nc5ccc(F)cc5)CC4)cc3F)ccnc2cc1OCCCN1CCOCC1 [Foretinib] (partner 0.25 µM)
In short: as §1

Vorinostat + Navitoclax = compound: O=C(CCCCCCC(=O)Nc1ccccc1)NO [Vorinostat] + CC1(C)CCC(c2ccc(Cl)cc2)=C(CN2CCN(c3ccc(C(=O)NS(=O)(=O)c4ccc(N[C@H](CCN5CCOCC5)CSc5ccccc5)c(S(=O)(=O)C(F)(F)F)c4)cc3)CC2)C1 [Navitoclax] (partner 0.5 µM)
In short: as §1

Vorinostat + Olaparib = compound: O=C(CCCCCCC(=O)Nc1ccccc1)NO [Vorinostat] + O=C(c1cc(Cc2n[nH]c(=O)c3ccccc23)ccc1F)N1CCN(C(=O)C2CC2)CC1 [Olaparib] (partner 8 µM)
In short: as §1

| Cell Line | relative viability (Vorinostat + Alpelisib; first compound 0.253 µM) | relative viability (Vorinostat + Alpelisib; first compound 0.8 µM) | relative viability (Vorinostat + Alpelisib; first compound 2.53 µM) | relative viability (Vorinostat + Alpelisib; first compound 8 µM) | relative viability (Vorinostat + OSI-027; first compound 0.253 µM) | relative viability (Vorinostat + OSI-027; first compound 0.8 µM) | relative viability (Vorinostat + OSI-027; first compound 2.53 µM) | relative viability (Vorinostat + OSI-027; first compound 8 µM) | relative viability (Vorinostat + Foretinib; first compound 0.253 µM) | relative viability (Vorinostat + Foretinib; first compound 0.8 µM) | relative viability (Vorinostat + Foretinib; first compound 2.53 µM) | relative viability (Vorinostat + Foretinib; first compound 8 µM) | relative viability (Vorinostat + Navitoclax; first compound 0.253 µM) | relative viability (Vorinostat + Navitoclax; first compound 0.8 µM) | relative viability (Vorinostat + Navitoclax; first compound 2.53 µM) | relative viability (Vorinostat + Navitoclax; first compound 8 µM) | relative viability (Vorinostat + Olaparib; first compound 0.253 µM) | relative viability (Vorinostat + Olaparib; first compound 0.8 µM) | relative viability (Vorinostat + Olaparib; first compound 2.53 µM) | relative viability (Vorinostat + Olaparib; first compound 8 µM) |
| --- | --- | --- | --- | --- | --- | --- | --- | --- | --- | --- | --- | --- | --- | --- | --- | --- | --- | --- | --- | --- |
| NCI-H1734 | 0.714 | 0.7 | 0.518 | 0.137 | 0.803 | 0.672 | 0.362 | 0.137 | 0.944 | 0.917 | 0.526 | 0.176 | 0.943 | 0.76 | 0.269 | 0.0823 | 0.739 | 0.66 | 0.31 | 0.0928 |
| NCI-H2170 | 0.823 | 0.69 | 0.235 | 0.141 | 0.78 | 0.759 | 0.569 | 0.144 | 0.982 | 1.04 | 0.675 | 0.526 | 0.706 | 0.481 | 0.216 | 0.172 | 0.632 | 0.554 | 0.146 | 0.0982 |
| COR-L23 | 0.834 | 0.372 | 0.0994 | 0.0715 | 0.842 | 0.396 | 0.151 | 0.0835 | 1.02 | 0.671 | 0.152 | 0.0834 | 1.13 | 0.503 | 0.0887 | 0.0849 | 0.301 | 0.246 | 0.0921 | 0.0666 |
| HARA | 0.949 | 0.761 | 0.174 | 0.0907 | 0.64 | 0.213 | 0.155 | 0.0573 | 0.965 | 0.495 | 0.151 | 0.0596 | 1.17 | 1.16 | 0.606 | 0.086 | 0.966 | 0.454 | 0.0979 | 0.0743 |
| LU99A | 0.517 | 0.395 | 0.178 | 0.126 | 0.352 | 0.276 | 0.195 | 0.164 | 0.81 | 0.692 | 0.319 | 0.222 | 0.653 | 0.553 | 0.172 | 0.0974 | 0.232 | 0.177 | 0.104 | 0.101 |
| LXF-289 | 1.1 | 1.04 | 0.351 | 0.0687 | 0.969 | 0.761 | 0.407 | 0.0564 | 0.981 | 0.97 | 0.3 | 0.0942 | 1.04 | 0.963 | 0.279 | 0.0872 | 1.11 | 1.02 | 0.148 | 0.0576 |
| CAL-12T | 1.18 | 1.07 | 0.462 | 0.0781 | 0.814 | 0.746 | 0.292 | 0.0987 | 1.34 | 1.14 | 0.721 | 0.119 | 1.16 | 1.14 | 0.56 | 0.101 | 0.82 | 0.824 | 0.532 | 0.138 |
| NCI-H2087 | 1.03 | 1.06 | 0.393 | 0.134 | 0.746 | 0.417 | 0.106 | 0.063 | 1.34 | 0.615 | 0.153 | 0.0924 | 1.05 | 0.959 | 0.238 | 0.189 | 0.717 | 0.52 | 0.13 | 0.069 |
| NCI-H647 | 1.51 | 0.966 | 0.254 | 0.0332 | 0.777 | 0.526 | 0.19 | 0.0491 | 1.08 | 1.04 | 0.507 | 0.0683 | 1.14 | 0.759 | 0.149 | 0.0271 | 0.694 | 0.201 | 0.0618 | 0.0259 |
| NCI-H1915 | 1.16 | 1 | 0.4 | 0.0675 | 0.632 | 0.5 | 0.205 | 0.152 | 1.14 | 1.05 | 0.474 | 0.137 | 0.792 | 0.762 | 0.479 | 0.0857 | 0.231 | 0.175 | 0.113 | 0.0841 |
| HCC-15 | 0.93 | 0.864 | 0.468 | 0.0971 | 0.698 | 0.487 | 0.269 | 0.0848 | 1.12 | 0.979 | 0.464 | 0.102 | 0.82 | 0.594 | 0.324 | 0.0877 | 0.672 | 0.631 | 0.35 | 0.106 |
| NCI-H1666 | 0.962 | 0.586 | 0.245 | 0.156 | 0.772 | 0.678 | 0.383 | 0.335 | 0.982 | 0.906 | 0.387 | 0.349 | 0.845 | 0.652 | 0.322 | 0.235 | 0.669 | 0.755 | 0.512 | 0.475 |
| UMC-11 | 1.02 | 0.852 | 0.221 | 0.0659 | 0.441 | 0.263 | 0.135 | 0.0952 | 1.12 | 0.465 | 0.121 | 0.103 | 0.277 | 0.154 | 0.0896 | 0.0856 | 0.374 | 0.235 | 0.0709 | 0.064 |
| PC-14 | 1 | 0.903 | 0.263 | 0.0674 | 1.13 | 0.832 | 0.0624 | 0.0451 | 1.15 | 1.04 | 0.62 | 0.0829 | 1.16 | 0.985 | 0.198 | 0.091 | 0.351 | 0.197 | 0.064 | 0.0386 |
| NCI-H1793 | 0.905 | 0.96 | 0.519 | 0.251 | 0.328 | 0.32 | 0.302 | 0.151 | 1.03 | 0.679 | 0.257 | 0.204 | 0.534 | 0.521 | 0.186 | 0.118 | 1.16 | 0.937 | 0.358 | 0.111 |
